From patent US5072038A, “2,3,4,5-tetrahalogenobenzene derivatives” (Bayer Aktiengesellschaft, priority 1984, dated 1991)
≈ marks a conversion by molar mass, not a printed value. Structures can show the parent of a compound that is named as a salt. Where two headings read alike, the source gives them in different places.

Key:
Experiment in all cases: MIC, agar dilution test
Assay type in all cases: cell-based
[1] = system: Providencia 12052; settings: agar dilution test/isosensitest medium
Description: (§1) | Agar dilution test/isosensitest medium

[2] = system: Staph. 133; settings: agar dilution test/isosensitest medium
Description: as §1

[3] = system: Pseudom. Ellsworth; settings: agar dilution test/isosensitest medium
Description: as §1

[4] = system: Klebsiella 6179; settings: agar dilution test/isosensitest medium
Description: as §1

[5] = system: Proteus 1017; settings: agar dilution test/isosensitest medium
Description: as §1

[6] = system: Staph. 1756; settings: agar dilution test/isosensitest medium
Description: as §1

[7] = system: E. coli 445/7; settings: Escherichia coli, agar dilution test/isosensitest medium
Description: as §1

[8] = system: E. coli T 7; settings: Escherichia coli, T7
Description: as §1

[9] = system: Klebsiella 63; settings: agar dilution test/isosensitest medium
Description: as §1

[10] = system: Providencia 12012; settings: agar dilution test/isosensitest medium
Description: as §1

[11] = system: Staph. FK 422; settings: agar dilution test/isosensitest medium
Description: as §1

[12] = system: E. coli Neumann; settings: Escherichia coli, agar dilution test/isosensitest medium
Description: as §1

[13] = E. coli 445/7 (first MIC table)
[14] = E. coli T 7, agar dilution test/isosensitest medium, read-out: MIC
[15] = 445/7, E. coli 455/7 (second MIC table)

| Structure (SMILES) | MIC [1] | MIC [2] | MIC [3] | MIC [4] | MIC [5] | MIC [6] | MIC [7, 13] | MIC [8, 14] | MIC [9] | MIC [10] | MIC [11] | MIC [12] | MIC [8] | MIC [7, 15] |
| --- | --- | --- | --- | --- | --- | --- | --- | --- | --- | --- | --- | --- | --- | --- |
| O=C(O)c1cn(C2CC2)c2c(F)c(N3CCNCC3)c(Cl)cc2c1=O [Example 1, 6-chloro-1-cyclopropyl-8-fluoro-1,4-dihydro-4-oxo-7-(1-piperazinyl)-3-quinolinecarboxylic acid] | 8 µg/mL (≈ 21.9 µM) | 0.25 µg/mL (≈ 0.683 µM) | 0.06 µg/mL (≈ 0.164 µM) | 0.03 µg/mL (≈ 0.082 µM) | ≤ 0.015 µg/mL | 0.25 µg/mL (≈ 0.683 µM) | 4 µg/mL (≈ 10.9 µM) | ≤ 0.015 µg/mL | ≤ 0.015 µg/mL | ≤ 0.015 µg/mL | 0.25 µg/mL (≈ 0.683 µM) | ≤ 0.015 µg/mL | – | – |
| CC1CN(c2c(Cl)cc3c(=O)c(C(=O)O)cn(C4CC4)c3c2F)CCN1 (stereo not drawn) [Example 2] | 16 µg/mL (≈ 42.1 µM) | 0.25 µg/mL (≈ 0.658 µM) | – | 0.03 µg/mL (≈ 0.079 µM) | – | 0.5 µg/mL (≈ 1.32 µM) | 8 µg/mL (≈ 21.1 µM) | ≤ 0.015 µg/mL | 0.03 µg/mL (≈ 0.079 µM) | 0.03 µg/mL (≈ 0.079 µM) | 0.25 µg/mL (≈ 0.658 µM) | ≤ 0.015 µg/mL | – | – |
| CCC1CN(c2c(Cl)cc3c(=O)c(C(=O)O)cn(C4CC4)c3c2F)CCN1 (stereo not drawn) [Example 3] | 16 µg/mL (≈ 40.6 µM) | 0.25 µg/mL (≈ 0.635 µM) | – | ≤ 0.015 µg/mL | – | 0.25 µg/mL (≈ 0.635 µM) | 8 µg/mL (≈ 20.3 µM) | ≤ 0.015 µg/mL | 0.03 µg/mL (≈ 0.0762 µM) | – | 0.25 µg/mL (≈ 0.635 µM) | ≤ 0.015 µg/mL | – | – |
| CC1CN(c2c(Cl)cc3c(=O)c(C(=O)O)cn(C4CC4)c3c2F)CC(C)N1 (stereo not drawn) [Example 5] | 32 µg/mL (≈ 81.3 µM) | 0.5 µg/mL (≈ 1.27 µM) | – | 0.03 µg/mL (≈ 0.0762 µM) | – | 0.5 µg/mL (≈ 1.27 µM) | 8 µg/mL (≈ 20.3 µM) | ≤ 0.015 µg/mL | 0.03 µg/mL (≈ 0.0762 µM) | – | 0.25 µg/mL (≈ 0.635 µM) | ≤ 0.015 µg/mL | – | – |
| CN1CCN(c2c(Cl)cc3c(=O)c(C(=O)O)cn(C4CC4)c3c2F)CC1 [Example 6] | 4 µg/mL (≈ 10.5 µM) | 0.25 µg/mL (≈ 0.658 µM) | – | 0.015 µg/mL (≈ 0.0395 µM) | 0.06 µg/mL (≈ 0.158 µM) | 0.5 µg/mL (≈ 1.32 µM) | 4 µg/mL (≈ 10.5 µM) | ≤ 0.015 µg/mL | 0.015 µg/mL (≈ 0.0395 µM) | 0.03 µg/mL (≈ 0.079 µM) | 0.025 µg/mL (≈ 0.0658 µM) | ≤ 0.015 µg/mL | – | – |
| O=C(O)c1cn(C2CC2)c2c(F)c(N3CCN(CCO)CC3)c(Cl)cc2c1=O [Example 7] | 16 µg/mL (≈ 39 µM) | 0.25 µg/mL (≈ 0.61 µM) | – | 0.06 µg/mL (≈ 0.146 µM) | 0.125 µg/mL (≈ 0.305 µM) | 0.5 µg/mL (≈ 1.22 µM) | 16 µg/mL (≈ 39 µM) | ≤ 0.015 µg/mL | 0.06 µg/mL (≈ 0.146 µM) | – | 0.5 µg/mL (≈ 1.22 µM) | ≤ 0.015 µg/mL | – | – |
| O=C(O)c1cn(C2CC2)c2c(F)c(N3CCNC(C4CCCCC4)C3)c(Cl)cc2c1=O (stereo not drawn) [Example 8] | – | 0.06 µg/mL (≈ 0.134 µM) | – | – | – | 0.06 µg/mL (≈ 0.134 µM) | – | ≤ 0.015 µg/mL | – | – | 0.06 µg/mL (≈ 0.134 µM) | – | – | – |
| CCN1CCN(c2c(Cl)cc3c(=O)c(C(=O)O)cn(C4CC4)c3c2F)CC1 [Example 10, 6-chloro-1-cyclopropyl-7-(4-ethyl-1-piperazinyl)-8-fluoro-1,4-dihydro-4-oxo-3-quinolinecarboxylic acid] | – | – | – | 0.06 µg/mL (≈ 0.152 µM) | – | – | 16 µg/mL (≈ 40.6 µM) | – | 0.125 µg/mL (≈ 0.317 µM) | – | – | ≤ 0.015 µg/mL | 0.025 µg/mL (≈ 0.0635 µM) | – |
| CC(=O)CCN1CCN(c2c(Cl)cc3c(=O)c(C(=O)O)cn(C4CC4)c3c2F)CC1 [Example 12, 6-chloro-1-cyclopropyl-8-fluoro-1,4-dihydro-4-oxo-7-[4-(3-oxobutyl)-1-piperazinyl]-3-quinolinecarboxylic acid] | 16 µg/mL (≈ 36.7 µM) | 0.25 µg/mL (≈ 0.574 µM) | 0.125 µg/mL (≈ 0.287 µM) | 0.06 µg/mL (≈ 0.138 µM) | 0.03 µg/mL (≈ 0.0688 µM) | 0.25 µg/mL (≈ 0.574 µM) | – | ≤ 0.015 µg/mL | ≤ 0.015 µg/mL | ≤ 0.015 µg/mL | 0.25 µg/mL (≈ 0.574 µM) | ≤ 0.015 µg/mL | – | 8 µg/mL (≈ 18.4 µM) |
| CC(=O)CN1CCN(c2c(Cl)cc3c(=O)c(C(=O)O)cn(C4CC4)c3c2F)CC1.Cl [Example 13, 6-chloro-1-cyclopropyl-8-fluoro-1,4-dihydro-4-oxo-7-[4-(2-oxopropyl)-1-piperazinyl]-3-quinolinecarboxylic acid hydrochloride] | 16 µg/mL | 0.25 µg/mL | 0.125 µg/mL | 0.06 µg/mL | ≤ 0.015 µg/mL | 0.25 µg/mL | – | ≤ 0.015 µg/mL | ≤ 0.015 µg/mL | ≤ 0.015 µg/mL | 0.25 µg/mL | ≤ 0.015 µg/mL | – | 8 µg/mL |
| O=C(CN1CCN(c2c(Cl)cc3c(=O)c(C(=O)O)cn(C4CC4)c3c2F)CC1)c1ccccc1 [Example 14, 6-chloro-1-cyclopropyl-8-fluoro-1,4-dihydro-4-oxo-7-[4-(2-oxo-2-phenylethyl)-1-piperazinyl]-3-quinolinecarboxylic acid] | 16 µg/mL (≈ 33.1 µM) | – | – | 0.25 µg/mL (≈ 0.517 µM) | 0.125 µg/mL (≈ 0.258 µM) | – | – | ≤ 0.015 µg/mL | 0.06 µg/mL (≈ 0.124 µM) | 0.06 µg/mL (≈ 0.124 µM) | – | ≤ 0.015 µg/mL | – | 2 µg/mL (≈ 4.13 µM) |
| CC1CN(c2c(Cl)cc3c(=O)c(C(=O)O)cn(C4CC4)c3c2F)CC(C)O1 (stereo not drawn) [Example 17, 6-chloro-1-cyclopropyl-8-fluoro-1,4-dihydro-7-(2,6-dimethyl-4-morpholinyl)-4-oxo-3-quinolinecarboxylic acid] | – | – | – | – | – | ≤ 0.015 µg/mL | – | – | – | – | ≤ 0.015 µg/mL | – | – | – |
| CN1CCN(c2c(F)cc3c(=O)c(C(=O)O)cn(C4CC4)c3c2Cl)CC1 [Example 19, 8-chloro-1-cyclopropyl-6-fluoro-1,4-dihydro-7-(4-methyl-1-piperazinyl)-4-oxo-3-quinolinecarboxylic acid] | 4 µg/mL (≈ 10.5 µM) | 0.06 µg/mL (≈ 0.158 µM) | 0.125 µg/mL (≈ 0.329 µM) | 0.03 µg/mL (≈ 0.079 µM) | 0.03 µg/mL (≈ 0.079 µM) | 0.06 µg/mL (≈ 0.158 µM) | – | ≤ 0.015 µg/mL | 0.03 µg/mL (≈ 0.079 µM) | 0.03 µg/mL (≈ 0.079 µM) | 0.06 µg/mL (≈ 0.158 µM) | ≤ 0.015 µg/mL | – | 1 µg/mL (≈ 2.63 µM) |
| CC1CN(c2c(F)cc3c(=O)c(C(=O)O)cn(C4CC4)c3c2Cl)CCN1 (stereo not drawn) [Example 20, 8-chloro-1-cyclopropyl-6-fluoro-1,4-dihydro-7-(3-methyl-1-piperazinyl)-4-oxo-3-quinolinecarboxylic acid] | 4 µg/mL (≈ 10.5 µM) | 0.06 µg/mL (≈ 0.158 µM) | 0.25 µg/mL (≈ 0.658 µM) | 0.03 µg/mL (≈ 0.079 µM) | ≤ 0.015 µg/mL | 0.06 µg/mL (≈ 0.158 µM) | – | ≤ 0.015 µg/mL | ≤ 0.015 µg/mL | 0.03 µg/mL (≈ 0.079 µM) | 0.06 µg/mL (≈ 0.158 µM) | ≤ 0.015 µg/mL | – | 1 µg/mL (≈ 2.63 µM) |
| O=C(O)c1cn(C2CC2)c2c(Cl)c(N3CCNCC3)c(F)cc2c1=O [Example 21, hydrochloride] | 1 µg/mL | 0.06 µg/mL | – | 0.03 µg/mL | 0.03 µg/mL | 0.125 µg/mL | – | ≤ 0.015 µg/mL | 0.06 µg/mL | 0.06 µg/mL | 0.125 µg/mL | ≤ 0.015 µg/mL | – | 1 µg/mL |
| CC1CN(c2c(Cl)cc3c(=O)c(C(=O)O)cn(C4CC4)c3c2Cl)CCN1 (stereo not drawn) [Example 22, 6,8-dichloro-1-cyclopropyl-1,4-dihydro-7-(3-methyl-1-piperazinyl)-4-oxo-3-quinolinecarboxylic acid] | 2 µg/mL (≈ 5.05 µM) | 0.125 µg/mL (≈ 0.315 µM) | – | 0.06 µg/mL (≈ 0.151 µM) | 0.06 µg/mL (≈ 0.151 µM) | 0.125 µg/mL (≈ 0.315 µM) | – | ≤ 0.015 µg/mL | 0.03 µg/mL (≈ 0.0757 µM) | 0.06 µg/mL (≈ 0.151 µM) | 0.125 µg/mL (≈ 0.315 µM) | ≤ 0.015 µg/mL | – | 2 µg/mL (≈ 5.05 µM) |
| CCn1cc(C(=O)O)c(=O)c2cc(F)c(N3CCNCC3)cc21 [Norfloxacin, 1-ethyl-6-fluoro-1,4-dihydro-4-oxo-7-(1-piperazinyl)-3-quinolinecarboxylicacid, reference compound] | 64 µg/mL (≈ 200 µM) | 0.5 µg/mL (≈ 1.57 µM) | 0.125 µg/mL (≈ 0.391 µM) | 0.25 µg/mL (≈ 0.783 µM) | 0.03 µg/mL (≈ 0.0939 µM) | 1 µg/mL (≈ 3.13 µM) | – | 0.03 µg/mL (≈ 0.0939 µM) | 0.125 µg/mL (≈ 0.391 µM) | 0.03 µg/mL (≈ 0.0939 µM) | 0.5 µg/mL (≈ 1.57 µM) | 0.06 µg/mL (≈ 0.188 µM) | – | 16 µg/mL (≈ 50.1 µM) |
